The source of these data is patent publication US11319311B2, “Crystalline forms of Actinomycin D for treatment of cancer” (TRANSGENEX NANOBIOTECH, INC., priority 2018, dated 2022).

By IC50 is commonly meant the concentration needed to halve the response being measured.

Molecules are shown by their SMILES. Where two headings read alike, the source gives them in different places.

Data set [1] in a line: Accelerated stability studies (PXRD physical form stability). Format: physicochemical. Conditions: accelerated conditions 75% humidity and 40° C., one year, by PXRD. On the procedure: Stability studies of the DACT novel forms were conducted using accelerated conditions (75% humidity and 40° C.) of which are obvious to the artisan in the field, for more than one year. […] Selected data of the novel complexes of DACT:methylparaben, propylparaben and diphenic acid proves this point.

The conditions of data set [2]: in vivo; cited from earlier work.
Another data set has as its system PC-3. In words: Monolayer cell culture IC50 (CellTiter-Glo viability), PC-3. Format: cell-based. The protocol: (§1) Cancer cell lines listed in Table 1 were subjected for testing anti-cancer potency or the half maximal inhibitory concentration (IC50) of the D-Actinomycin (DACT) molecular complexes.
(§2) The SK-ES-1, U-2 OS, and SAOS-2 cells were cultured in a growth medium that is ATCC-formulated McCoy's 5a Medium Modified, Catalog No. 30-2007. The PC-3, PANC-1, SK-Mel-5, A549, H460, and H1299 were cultured in a growth medium that is ATCC-formulated Dulbecco's Modified Eagle's Medium (DMEM), Catalog No. 30-2002. The cells were seeded on 96-well microtiter plates with 3500 cells per well and cultured in an incubator (Model 3120, Thermo Scientific, USA) with a constant temperature at 37° C. and 5% carbon dioxide (CO2) gas for 24 hours.
(§3) The new DACT-molecular complexes were made into a series with concentration of 200 nM to 40 nM, 8 nM, 1.6 nM, 0.32 nM, and 0.064 nM. 100 μl of each solution was then added into each well to bring out the final concentration of the drug treatment at 100 nM, 20 nM, 4 nM, 0.8 nM, 0.16 nM, or 0.032 nM, respectively.
(§4) The treated cells in the 96 well plate was then further cultured at the same conditions for 72 hours and then subjected for a final cell viability measurement. The measurement used a homogeneous method to determine the number of metabolically active cells presented in each of treatments. A testing reagent for the measurement is a mixture solution of the CellTiter-Glo® 2.0 reagent (CTG, Promega Cat #G9243, USA) and growth medium in 1:1 ratio in this respect.
(§5) The 96-well plate with the new molecular complex treated cells was taken out from incubator after the 72 hours of incubation, and the treatment solution in each well was removed using a multichannel pipette, and 100 μl of the testing reagent were added into each well. The plate was then placed on a plate shaker for 15 min. The plate was covered with a piece of aluminum foil to protect the CTG luminescence during the shaking time.
(§6) Then 90 μl of the 100 μl testing reagent were transferred into an opaque-walled 96-well plate for the CTG luminescence reading on a plate reader (SynergyH4 Hybrid Reader, Biotek, USA). The luminescence intensity of each treatment was positively correlated with the number of cells survived during the treatments.
(§7) All the treatment data was normalized by comparing with the control samples that had only growth medium without any molecular complexes. The half maximal inhibitory concentration (IC50) data was calculated using the nonlinear regression model and dose-responses (inhibition) curve built in the software. Each of treatments was performed in three replications each time and repeated three times for validation. The IC50 average […] (Avg) and standard deviation (STDV) were calculated based on the three replications.
(In general: In ATP-based viability assays light output follows the ATP content of the culture.)

The subject of the next data set is A549. The data set is described as follows: Monolayer cell culture IC50 (CellTiter-Glo viability), A549. It is filed as cell-based. As to conditions: Homo sapiens, Lung, 72 hours treatment, average of three replications. On the procedure:
as §1, §2, §3, §4, §5, §6, §7

For the next data set, the system named is U-2 OS. The data set is described as follows: Monolayer cell culture IC50 (CellTiter-Glo viability), U-2 OS. It is filed as cell-based. The protocol: as §1, §2, §3, §4, §5, §6, §7
For the next data set, the system named is SK-ES-1. In words: Monolayer cell culture IC50 (CellTiter-Glo viability), SK-ES-1. Format: cell-based, human. As to conditions: Sarcoma, SK-ES-1, monolayer, 72 hours treatment, average of three replications. On the procedure: as §1, §2, §3, §4, §5, §6, §7
The subject of another data set is H460. In words: Monolayer cell culture IC50 (CellTiter-Glo viability), H460. It is filed as cell-based. Conditions: Homo sapiens, NCI-H460, Lung, 72 hours treatment, average of three replications. The protocol: as §1, §2, §3, §4, §5, §6, §7
For the next data set, the system named is SK-Mel-5. In words: Monolayer cell culture IC50 (CellTiter-Glo viability), SK-Mel-5. It is filed as cell-based. On the procedure: as §1, §2, §3, §4, §5, §6, §7
For data set [3] the following is noted: in vivo; cited from earlier work. This is another data set of the same source.
The test system of another data set is PANC-1. The data set is described as follows: Monolayer cell culture IC50 (CellTiter-Glo viability), PANC-1. It is filed as cell-based. The protocol: as §1, §2, §3, §4, §5, §6, §7
Another data set deals with H1299. In words: Monolayer cell culture IC50 (CellTiter-Glo viability), H1299. Format: cell-based. Conditions: Homo sapiens, NCI-H1299, Lung, 72 hours treatment, average of three replications. The protocol: as §1, §2, §3, §4, §5, §6, §7
The mark [4] stands for this setting: Test I, read-out: IC50 Test (I) Avg.
Where [5] appears, read: Test II, read-out: IC50 Test (II) Avg.
[6] abbreviates: Test III, read-out: IC50 Test (III) Avg.
The mark [7] stands for this setting: Prostate, PC-3, monolayer, 72 hours treatment, Test I, average of three replications, read-out: IC50 Test (I) Avg.
[8] abbreviates: Prostate, PC-3, monolayer, 72 hours treatment, Test II, average of three replications, read-out: IC50 Test (II) Avg.
The mark [9] stands for this setting: Prostate, PC-3, monolayer, 72 hours treatment, Test III, average of three replications, read-out: IC50 Test (III) Avg.
Setting [10] is: Sarcoma, U-2 OS, monolayer, 72 hours treatment, Test I, average of three replications, read-out: IC50 Test (I) Avg.
The mark [11] stands for this setting: Sarcoma, U-2 OS, monolayer, 72 hours treatment, Test II, average of three replications, read-out: IC50 Test (II) Avg.
[12] abbreviates: Sarcoma, U-2 OS, monolayer, 72 hours treatment, Test III, average of three replications, read-out: IC50 Test (III) Avg.
Setting [13] is: Skin, SK-Mel-5, monolayer, 72 hours treatment, Test I, average of three replications, read-out: IC50 Test (I) Avg.
[14] abbreviates: Skin, SK-Mel-5, monolayer, 72 hours treatment, Test II, average of three replications, read-out: IC50 Test (II) Avg.
The mark [15] stands for this setting: Skin, SK-Mel-5, monolayer, 72 hours treatment, Test III, average of three replications, read-out: IC50 Test (III) Avg.
Where [16] appears, read: Pancreatic, PANC-1, monolayer, 72 hours treatment, Test I, average of three replications, read-out: IC50 Test (I) Avg.
Setting [17] is: Pancreatic, PANC-1, monolayer, 72 hours treatment, Test II, average of three replications, read-out: IC50 Test (II) Avg.
The mark [18] stands for this setting: Pancreatic, PANC-1, monolayer, 72 hours treatment, Test III, average of three replications, read-out: IC50 Test (III) Avg.

With `Cc1c2oc3c(C)ccc(C(=O)NC4C(=O)NC(C(C)C)C(=O)N5CCCC5C(=O)N(C)CC(=O)N(C)C(C(C)C)C(=O)OC4C)c3nc-2c(C(=O)NC2C(=O)NC(C(C)C)C(=O)N3CCCC3C(=O)N(C)CC(=O)N(C)C(C(C)C)C(=O)OC2C)c(N)c1=O.NC(CS)C(=O)O` (racemic) [DACT:DL-cysteine], the physical form stability entry in data set [1] is recorded as “shown physical stability”.
As for `Cc1c2oc3c(C)ccc(C(=O)N[C@@H]4C(=O)N[C@H](C(C)C)C(=O)N5CCC[C@H]5C(=O)N(C)CC(=O)N(C)[C@@H](C(C)C)C(=O)O[C@@H]4C)c3nc-2c(C(=O)N[C@@H]2C(=O)N[C@H](C(C)C)C(=O)N3CCC[C@H]3C(=O)N(C)CC(=O)N(C)[C@@H](C(C)C)C(=O)O[C@@H]2C)c(N)c1=O` [DACT, reference compound], the irritation to tissues entry in data set [2] is recorded as “extremely irritating to tissues”. The IC50 in the data set on PC-3 (Homo sapiens, PC-3, 72 h, read-out: IC50 Test (I) Avg (nM)) was 8.81 nM; in the data set with PC-3 (Homo sapiens, PC-3, 72 h, read-out: IC50 Test (II) Avg (nM)) it was 7 nM; in the data set on PC-3 (Homo sapiens, PC-3, 72 h, read-out: IC50 Test (III) Avg (nM)) it was 7.28 nM; in the data set on A549 (setting [4]), 1.64 nM; with A549 (setting [5]) it was 1.85 nM; in the data set with A549 (setting [6]), 1.64 nM. Also, the IC50 turned out to be 5.29 nM in the data set with U-2 OS (Homo sapiens, U2OS, 72 h, read-out: IC50 Test (I) Avg (nM)); 5.63 nM in the data set with U-2 OS (Homo sapiens, U2OS, 72 h, read-out: IC50 Test (II) Avg (nM)); 2.62 nM with U-2 OS (Homo sapiens, U2OS, 72 h, read-out: IC50 Test (III) Avg (nM)); 1.03 nM with SK-ES-1 (Homo sapiens, SK-ES1, Test I, read-out: IC50 Test (I) Avg); 0.56 nM in the data set with SK-ES-1 (Homo sapiens, SK-ES1, Test II, read-out: IC50 Test (II) Avg); 0.63 nM in the data set with SK-ES-1 (Homo sapiens, SK-ES1, Test III, read-out: IC50 Test (III) Avg). Besides, the IC50 with H460 (setting [4]) was found to be 0.35 nM; with H460 (setting [5]), 0.35 nM; with H460 (setting [6]), 0.35 nM; in the data set on SK-Mel-5 (Homo sapiens, SK-MEL-5, 72 h, read-out: IC50 Test (I) Avg (nM)), 0.61 nM; in the data set with SK-Mel-5 (Homo sapiens, SK-MEL-5, 72 h, read-out: IC50 Test (II) Avg (nM)) it was 0.5 nM; in the data set on SK-Mel-5 (Homo sapiens, SK-MEL-5, 72 h, read-out: IC50 Test (III) Avg (nM)), 2.9 nM. The IC50 was determined as 5.68 nM in the data set with PANC-1 (Homo sapiens, PANC-1, 72 h, read-out: IC50 Test (I) Avg (nM)); 4.56 nM in the data set on PANC-1 (Homo sapiens, PANC-1, 72 h, read-out: IC50 Test (II) Avg (nM)); 4.74 nM in the data set on PANC-1 (Homo sapiens, PANC-1, 72 h, read-out: IC50 Test (III) Avg (nM)); 1.78 nM in the data set on H1299 (setting [4]); 1.15 nM in the data set on H1299 (setting [5]); 1.28 nM in the data set on H1299 (setting [6]). Besides, the “absorption from the GI tract” value in data set [3] is reported as “poorly absorbed”.
Regarding `Cc1c2oc3c(C)ccc(C(=O)NC4C(=O)NC(C(C)C)C(=O)N5CCCC5C(=O)N(C)CC(=O)N(C)C(C(C)C)C(=O)OC4C)c3nc-2c(C(=O)NC2C(=O)NC(C(C)C)C(=O)N3CCCC3C(=O)N(C)CC(=O)N(C)C(C(C)C)C(=O)OC2C)c(N)c1=O.O=C(O)c1ccccc1-c1ccccc1C(=O)O` (centres unmarked) [DACT-diphenic Acid], the IC50 with PC-3 (setting [7]) was determined as 6.38 nM; with PC-3 (setting [8]), 5.89 nM; with PC-3 (setting [9]) it was 6.55 nM; in the data set on U-2 OS (setting [10]) it was 4.34 nM; in the data set on U-2 OS (setting [11]), 4.3 nM; with U-2 OS (setting [12]), 2.69 nM. For the same compound, the IC50 with SK-Mel-5 (setting [13]) is 0.42 nM; with SK-Mel-5 (setting [14]), 0.32 nM; with SK-Mel-5 (setting [15]), 2.3 nM; in the data set on PANC-1 (setting [16]), 5.31 nM; in the data set on PANC-1 (setting [17]), 3.25 nM; in the data set with PANC-1 (setting [18]) it was 3.83 nM. In [1], the physical form stability result is recorded as “stable”.
On to `COC(=O)c1ccc(O)cc1.Cc1c2oc3c(C)ccc(C(=O)NC4C(=O)NC(C(C)C)C(=O)N5CCCC5C(=O)N(C)CC(=O)N(C)C(C(C)C)C(=O)OC4C)c3nc-2c(C(=O)NC2C(=O)NC(C(C)C)C(=O)N3CCCC3C(=O)N(C)CC(=O)N(C)C(C(C)C)C(=O)OC2C)c(N)c1=O` (centres unmarked) [DACT-methylparaben], for which the IC50 in the data set with PC-3 (setting [7]) amounted to 7.1 nM; in the data set with PC-3 (setting [8]), 5.53 nM; with PC-3 (setting [9]) it was 6.15 nM; in the data set with U-2 OS (setting [10]), 4.3 nM; in the data set on U-2 OS (setting [11]), 4.38 nM; in the data set with U-2 OS (setting [12]), 2.27 nM. In addition, the IC50 in the data set on SK-ES-1 (setting [4]) was found to be 0.71 nM; with SK-ES-1 (setting [5]), 0.51 nM; in the data set on SK-ES-1 (setting [6]) it was 0.58 nM; with SK-Mel-5 (setting [13]) it was 0.36 nM; in the data set with SK-Mel-5 (setting [14]) it was 0.37 nM; in the data set with SK-Mel-5 (setting [15]), 2.3 nM. The IC50 in the data set on PANC-1 (setting [16]) was found to be 4.15 nM; with PANC-1 (setting [17]), 2.66 nM; in the data set with PANC-1 (setting [18]), 3.48 nM. Also, the physical form stability entry in data set [1] is given as “stable”.
